Experimental data from PubChem BioAssay AID1963832 (Molecular Pharmacology Branch, DTP, NCI, 2024).
pIC50: −log10 of the molar value.

Tested on: 885724-159-R-J1-PDC complex spheroid viability
Assay: Anticancer human tumor 885724-159-R-J1-PDC patient-derived pancreatic adenocarcinoma cell line growth inhibition [POLQ]
Details: for pIC50: curve of first compound; for viability, T/C: stronger effect = lower value
Method: Multicellular complex tumor spheroid response to Polymerase (POL) inhibitors (novobiocin, ART-558, RP6685) in combination with a variety of drugs and investigational agents in selected tumor cell lines
The POL inhibitors (novobiocin, ART-558, and RP6685) were evaluated both individually and in combination with standard of care and investigational anticancer small molecules within a complex spheroid model of solid tumors. . Complex spheroids include a stromal component modeled by human endothelial cells (HUVEC) and fibroblasts modeled by human mesenchymal stem cells (MSCs). The concentration ranges selected for each drug and investigational agent were based upon clinically achievable concentrations if the clinical Cmax of the agent was known.
Compounds. The drugs and investigational agents: novobiocin (NSC847541), ART-558 (NSC835418), RP-6685 (NSC848927), peposertib (NSC802822), ceralasertib (NSC780249), elimusertib (NSC800525), camonsertib (NSC841442), AZD-1390 (NSC803789), olaparib (NSC753686), talazoparib (NSC767125), rucaparib (NSC756644), sotorasib (NSC818433), MRTX-1133 (NSC836407), SN-38 (NSC673596), topotecan (NSC609699), epotoside (NSC141540), doxorubicin (NSC123127), gemcitabine (NSC613327), 5-fluorouracil (NSC19893), paclitaxel (NSC125973), vemurafenib (NSC761431), MSA-2 (NSC828583), SN-011 (NSC837082), adavosertib (NSC754352), prexasertib (NSC758257), carboplatin (NSC241240) and oxaliplatin (NSC266046), were obtained from the National Cancer Institute (NCI) Developmental Therapeutics Program Chemical Repository (21). The FDA-approved anticancer drug set is available from the Developmental Therapeutics Program at https://dtp.cancer.gov/organization/dscb/obtaining/. […] The stock solutions were prepared in dimethyl sulfoxide (DMSO, Sigma-Aldrich, St. Louis, MO, cat. D2650), except for the platinum compounds which were prepared in saline (Quality Biological, Gaithersburg, MD, cat. 114-055-101), at 800-fold the tested concentration and stored at -70 degrees C prior to their use. All drugs and investigational agents were tested over a range starting from a high concentration at or near the clinical Cmax and decreasing in half-log increments. If the clinical Cmax for an agent had not been determined, the highest concentration tested was 10 microM, except for SN-38, which was tested at a high concentration of 1 microM.
Cell Culture. All cells were maintained in an incubator at 37 degrees C and 5% CO2 with 95% humidity. The PDC lines were cultured according to standard operating procedures established by the NCI PDMR (https://pdmr.cancer.gov). Table 3 of the manuscript, lists the cell lines along with the number of the three cell types plated to form the mct-spheroids and media for tumor cell growth. After thawing, all PDC lines, except 997537-175-T-J1-PDC and 415267-285-R-J2-PDC, were cultured in Matrigel-coated flasks prepared with a working solution of 1X Ham's F-12 nutrient mix, without supplementation (Thermo Fisher Scientific, cat. 11765054), 100 U/mL penicillin-streptomycin (Thermo Fisher Scientific, cat. 15140122), and 2.5% Matrigel (Corning Inc., Corning, NY, cat. 354248) for the first three passages. The two PDC lines 997537-175-T-J1-PDC and 415267-285-R-J2-PDC were cultured on uncoated flasks. The 857933-349-R-J2-PDC line was cultured in 6C/Colon 1B media containing advanced DMEM/F-12 (Thermo Fisher Scientific, cat. 12634028), 10 mM HEPES (Thermo Fisher Scientific, cat. 15630080), 1X GlutaMAX supplement (Thermo Fisher Scientific, cat. 35050061), 0.1 mg/mL primocin (InvivoGen, San Diego, CA, cat. ant-pm-2), 10% defined fetal bovine serum, heat inactivated (HyClone Laboratories Inc., Logan, UT, cat. SH30070.03HI), 50% L-WRN conditioned media (ATCC, cat. CRL-3276), 1.25 mM N-Acetyl-L-cysteine (Sigma-Aldrich, cat. A9165), 10 mM nicotinamide (Sigma-Aldrich, cat. N0636), 1X B-27 supplement (Thermo Fisher Scientific, cat. 17504044), 1X N-2 supplement (Thermo Fisher Scientific, cat. […]

[1] = second compound 0.0316 µM, first compound 0.0316 µM
[2] = second compound 0.0316 µM, first compound 0.1 µM
[3] = second compound 0.0316 µM, first compound 0.316 µM
[4] = second compound 0.0316 µM, first compound 1 µM
[5] = second compound 0.1 µM, first compound 0.0316 µM
[6] = second compound 0.1 µM, first compound 0.1 µM
[7] = second compound 0.1 µM, first compound 0.316 µM
[8] = second compound 0.1 µM, first compound 1 µM
[9] = second compound 0.316 µM, first compound 0.0316 µM
[10] = second compound 0.316 µM, first compound 0.1 µM
[11] = second compound 0.316 µM, first compound 0.316 µM
[12] = second compound 0.316 µM, first compound 1 µM
[13] = second compound 1 µM, first compound 0.0316 µM
[14] = second compound 1 µM, first compound 0.1 µM
[15] = second compound 1 µM, first compound 0.316 µM
[16] = second compound 1 µM, first compound 1 µM
[17] = second compound 3.16 µM, first compound 0.0316 µM
[18] = second compound 3.16 µM, first compound 0.1 µM
[19] = second compound 3.16 µM, first compound 0.316 µM
[20] = second compound 3.16 µM, first compound 1 µM
[21] = second compound 10 µM, first compound 0.0316 µM
[22] = second compound 10 µM, first compound 0.1 µM
[23] = second compound 10 µM, first compound 0.316 µM
[24] = second compound 10 µM, first compound 1 µM
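Also: spheroids exposed to compounds for 7 days.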

CCc1c2c(nc3ccc(O)cc13)-c1cc3c(c(=O)n1C2)COC(=O)[C@]3(O)CC + Nc1ccc(C#CCN(C(=O)Cc2ncc(C(F)(F)F)cc2C(F)(F)F)c2ccc(F)cc2)nn1
pIC50 (second compound 0.0316 µM): 7.04 | pIC50 (second compound 0.1 µM): 7.25 | pIC50 (second compound 0.316 µM): 7.34 | pIC50 (second compound 1 µM): 7.09 | pIC50 (second compound 3.16 µM): 7.23 | pIC50 (second compound 10 µM): 6.92 | viability, T/C (second compound 0.0316 µM, first compound 0.00316 µM): 73.5% | viability, T/C (second compound 0.0316 µM, first compound 0.01 µM): 60.1% | viability, T/C [1]: 58% | viability, T/C [2]: 51.4% | viability, T/C [3]: 33.5% | viability, T/C [4]: 5.95% | viability, T/C (second compound 0.1 µM, first compound 0.00316 µM): 82.2% | viability, T/C (second compound 0.1 µM, first compound 0.01 µM): 63.5% | viability, T/C [5]: 52.3% | viability, T/C [6]: 48.1% | viability, T/C [7]: 33.2% | viability, T/C [8]: 6.65% | viability, T/C (second compound 0.316 µM, first compound 0.00316 µM): 83.1% | viability, T/C (second compound 0.316 µM, first compound 0.01 µM): 63.6% | viability, T/C [9]: 48.1% | viability, T/C [10]: 46.1% | viability, T/C [11]: 32.7% | viability, T/C [12]: 6.56% | viability, T/C (second compound 1 µM, first compound 0.00316 µM): 76.3% | viability, T/C (second compound 1 µM, first compound 0.01 µM): 63% | viability, T/C [13]: 49% | viability, T/C [14]: 51.4% | viability, T/C [15]: 37.7% | viability, T/C [16]: 5.34% | viability, T/C (second compound 3.16 µM, first compound 0.00316 µM): 78.8% | viability, T/C (second compound 3.16 µM, first compound 0.01 µM): 65.1% | viability, T/C [17]: 51.4% | viability, T/C [18]: 47.2% | viability, T/C [19]: 34.6% | viability, T/C [20]: 5.06% | viability, T/C (second compound 10 µM, first compound 0.00316 µM): 72.8% | viability, T/C (second compound 10 µM, first compound 0.01 µM): 58.6% | viability, T/C [21]: 53.6% | viability, T/C [22]: 55.1% | viability, T/C [23]: 39.3% | viability, T/C [24]: 5.13%

CNCc1ccc(-c2[nH]c3cc(F)cc4c3c2CCNC4=O)cc1 + Nc1ccc(C#CCN(C(=O)Cc2ncc(C(F)(F)F)cc2C(F)(F)F)c2ccc(F)cc2)nn1
pIC50 (second compound 0.0316 µM): < 5.00 | pIC50 (second compound 0.1 µM): < 5.00 | pIC50 (second compound 0.316 µM): < 5.00 | pIC50 (second compound 1 µM): < 5.00 | pIC50 (second compound 3.16 µM): < 5.00 | pIC50 (second compound 10 µM): < 5.00 | viability, T/C [1]: 89% | viability, T/C [2]: 93% | viability, T/C [3]: 87.5% | viability, T/C [4]: 91% | viability, T/C (second compound 0.0316 µM, first compound 3.16 µM): 92.3% | viability, T/C (second compound 0.0316 µM, first compound 10 µM): 91.1% | viability, T/C [5]: 101% | viability, T/C [6]: 88.3% | viability, T/C [7]: 92.5% | viability, T/C [8]: 94.2% | viability, T/C (second compound 0.1 µM, first compound 3.16 µM): 89.9% | viability, T/C (second compound 0.1 µM, first compound 10 µM): 85.6% | viability, T/C [9]: 95.5% | viability, T/C [10]: 81.1% | viability, T/C [11]: 85.9% | viability, T/C [12]: 89.8% | viability, T/C (second compound 0.316 µM, first compound 3.16 µM): 96.5% | viability, T/C (second compound 0.316 µM, first compound 10 µM): 92.7% | viability, T/C [13]: 88.7% | viability, T/C [14]: 101% | viability, T/C [15]: 89.7% | viability, T/C [16]: 85.7% | viability, T/C (second compound 1 µM, first compound 3.16 µM): 88.7% | viability, T/C (second compound 1 µM, first compound 10 µM): 83.4% | viability, T/C [17]: 100% | viability, T/C [18]: 96.8% | viability, T/C [19]: 96.6% | viability, T/C [20]: 88.6% | viability, T/C (second compound 3.16 µM, first compound 3.16 µM): 98.3% | viability, T/C (second compound 3.16 µM, first compound 10 µM): 81.9% | viability, T/C [21]: 92% | viability, T/C [22]: 92.2% | viability, T/C [23]: 98.8% | viability, T/C [24]: 91.5% | viability, T/C (second compound 10 µM, first compound 3.16 µM): 92.2% | viability, T/C (second compound 10 µM, first compound 10 µM): 91.7%
